# US4471131A, “Novel silyl esters of N-phosphonomethylglycine” (Monsanto Company, priority 1983, dated 1984)
# What was measured:
# Assay in all cases: post-emergence herbicidal activity, greenhouse
# Type in all cases: in vivo
# Conditions in all cases: Table II
# [1] = tested on: Barnyardgrass
# Text: (§1) A good grade of top soil is placed in aluminum pans having holes in the bottom and compacted to a depth of 0.95 to 1.27 cm. from the top of the pan. A predetermined number of seeds of each of several dicotyledonous and moncotyledonous annual plant species and/or vegetative propagules for the perennial plant species were placed on the soil and pressed into the soil surface. The seeds and/or vegetative propagules are covered with soil and leveled. The pans are then placed on a sand bench in the greenhouse and watered from below as needed. After the plants reach the desired age (two to three weeks), each pan, except for the control pans, is removed individually to a spraying chamber and sprayed by means of an atomizer at the rates noted. In the spray solution is an amount of an emulsifying agent mixture to give a spray solution or suspension which contains about 0.4% by weight of the emulsifier. The spray solution or suspension contains a sufficient amount of the candidate chemical in order to give application rates corresponding to those set forth in the tables. The pans were returned to the greenhouse and watered as before and the injury to the plants as compared to the control is observed at approximately two and four weeks and the results recorded. In the tables, WAT means "weeks after treatment."
# (§2) The post-emergent herbicidal activity index used in Tables II and III is as follows:
# (§3) The plant species utilized in these tests are identified by letter in accordance with the following legend: […]
# [2] = tested on: Canada Thistle
# Text: as §1, §2, §3
# [3] = tested on: Cocklebur
# Text: as §1, §2, §3
# [4] = tested on: Common Lambsquarters
# Text: as §1, §2, §3
# [5] = tested on: Downy Brome
# Text: as §1, §2, §3
# [6] = tested on: Johnsongrass
# Text: as §1, §2, §3
# [7] = tested on: Morningglory
# Text: as §1, §2, §3
# [8] = tested on: Pennsylvania Smartweed
# Text: as §1, §2, §3
# [9] = tested on: Quackgrass
# Text: as §1, §2, §3
# [10] = tested on: Velvetleaf
# Text: as §1, §2, §3
# [11] = tested on: Yellow Nutsedge
# Text: as §1, §2, §3
# [12] = 2 WAT, 5.6 kg/h, formulated immediately prior to treatment
# [13] = 2 WAT, 11.2 kg/h, formulated immediately prior to treatment
# [14] = 4 WAT, 5.6 kg/h, formulated immediately prior to treatment
# [15] = 4 WAT, 11.2 kg/h, formulated immediately prior to treatment
# [16] = 2 WAT, 5.6 kg/h, formulated in anhydrous tetrahydrofuran
# [17] = 2 WAT, 11.2 kg/h, formulated in anhydrous tetrahydrofuran
# [18] = 4 WAT, 5.6 kg/h, formulated in anhydrous tetrahydrofuran
# [19] = 4 WAT, 11.2 kg/h, formulated in anhydrous tetrahydrofuran
compound,measurement,setting,value
"CC(C)(C)[Si](C)(C)OC(=O)CNCP(=O)(O[Si](C)(C)C(C)(C)C)O[Si](C)(C)C(C)(C)C [Ex. 9, Glycine, N--((Bis[((1,1-Dimethylethyl)Dimethylsilyl)Oxy]Phosphinyl)Methyl),-(1,1-Dimethylethyl)Dimethylsilylester]",Plant Response Index (K),[1]; [12],1 (25-49% inhibition)
same,Plant Response Index (K),[1]; [13],1 (25-49% inhibition)
same,Plant Response Index (K),[1]; [14],1 (25-49% inhibition)
same,Plant Response Index (K),[1]; [15],2 (50-74% inhibition)
same,Plant Response Index (A),[2]; [12],1 (25-49% inhibition)
same,Plant Response Index (A),[2]; [13],1 (25-49% inhibition)
same,Plant Response Index (A),[2]; [14],2 (50-74% inhibition)
same,Plant Response Index (A),[2]; [15],1 (25-49% inhibition)
same,Plant Response Index (B),[3]; [12],1 (25-49% inhibition)
same,Plant Response Index (B),[3]; [13],2 (50-74% inhibition)
same,Plant Response Index (B),[3]; [14],2 (50-74% inhibition)
same,Plant Response Index (B),[3]; [15],2 (50-74% inhibition)
same,Plant Response Index (E),[4]; [12],0 (0-24% inhibition)
same,Plant Response Index (E),[4]; [13],0 (0-24% inhibition)
same,Plant Response Index (E),[4]; [14],1 (25-49% inhibition)
same,Plant Response Index (E),[4]; [15],2 (50-74% inhibition)
same,Plant Response Index (J),[5]; [12],0 (0-24% inhibition)
same,Plant Response Index (J),[5]; [13],1 (25-49% inhibition)
same,Plant Response Index (J),[5]; [14],1 (25-49% inhibition)
same,Plant Response Index (J),[5]; [15],1 (25-49% inhibition)
same,Plant Response Index (I),[6]; [12],1 (25-49% inhibition)
same,Plant Response Index (I),[6]; [13],1 (25-49% inhibition)
same,Plant Response Index (I),[6]; [14],1 (25-49% inhibition)
same,Plant Response Index (I),[6]; [15],1 (25-49% inhibition)
same,Plant Response Index (D),[7]; [12],2 (50-74% inhibition)
same,Plant Response Index (D),[7]; [13],2 (50-74% inhibition)
same,Plant Response Index (D),[7]; [14],2 (50-74% inhibition)
same,Plant Response Index (D),[7]; [15],2 (50-74% inhibition)
same,Plant Response Index (F),[8]; [12],1 (25-49% inhibition)
same,Plant Response Index (F),[8]; [13],1 (25-49% inhibition)
same,Plant Response Index (F),[8]; [14],1 (25-49% inhibition)
same,Plant Response Index (F),[8]; [15],1 (25-49% inhibition)
same,Plant Response Index (H),[9]; [12],0 (0-24% inhibition)
same,Plant Response Index (H),[9]; [13],0 (0-24% inhibition)
same,Plant Response Index (H),[9]; [14],0 (0-24% inhibition)
same,Plant Response Index (H),[9]; [15],0 (0-24% inhibition)
same,Plant Response Index (C),[10]; [12],1 (25-49% inhibition)
same,Plant Response Index (C),[10]; [13],2 (50-74% inhibition)
same,Plant Response Index (C),[10]; [14],1 (25-49% inhibition)
same,Plant Response Index (C),[10]; [15],2 (50-74% inhibition)
same,Plant Response Index (G),[11]; [12],1 (25-49% inhibition)
same,Plant Response Index (G),[11]; [13],1 (25-49% inhibition)
same,Plant Response Index (G),[11]; [14],2 (50-74% inhibition)
same,Plant Response Index (G),[11]; [15],2 (50-74% inhibition)
"Glycine, N-((Bis[((1,1-Dimethylethyl)Diphenylsilyl)oxy]-Phosphinyl)-Methyl)-, [(1,1-Dimethylethyl)Diphenylsilyl]Ester, (75%); Silanol, (1,1-Dimethylethyl)Diphenyl-, (25%-Mixture) [Ex. 4]",Plant Response Index (K),[1]; [16],1 (25-49% inhibition)
same,Plant Response Index (K),[1]; [17],1 (25-49% inhibition)
same,Plant Response Index (K),[1]; [18],1 (25-49% inhibition)
same,Plant Response Index (K),[1]; [19],1 (25-49% inhibition)
same,Plant Response Index (A),[2]; [16],0 (0-24% inhibition)
same,Plant Response Index (A),[2]; [17],2 (50-74% inhibition)
same,Plant Response Index (A),[2]; [18],0 (0-24% inhibition)
same,Plant Response Index (A),[2]; [19],2 (50-74% inhibition)
same,Plant Response Index (B),[3]; [16],1 (25-49% inhibition)
same,Plant Response Index (B),[3]; [17],2 (50-74% inhibition)
same,Plant Response Index (B),[3]; [18],1 (25-49% inhibition)
same,Plant Response Index (B),[3]; [19],2 (50-74% inhibition)
same,Plant Response Index (E),[4]; [16],0 (0-24% inhibition)
same,Plant Response Index (E),[4]; [17],2 (50-74% inhibition)
same,Plant Response Index (E),[4]; [18],0 (0-24% inhibition)
same,Plant Response Index (E),[4]; [19],3 (75-99% inhibition)
same,Plant Response Index (J),[5]; [16],0 (0-24% inhibition)
same,Plant Response Index (J),[5]; [17],0 (0-24% inhibition)
same,Plant Response Index (J),[5]; [18],0 (0-24% inhibition)
same,Plant Response Index (J),[5]; [19],0 (0-24% inhibition)
same,Plant Response Index (I),[6]; [16],0 (0-24% inhibition)
same,Plant Response Index (I),[6]; [17],0 (0-24% inhibition)
same,Plant Response Index (I),[6]; [18],0 (0-24% inhibition)
same,Plant Response Index (I),[6]; [19],1 (25-49% inhibition)
same,Plant Response Index (D),[7]; [16],1 (25-49% inhibition)
same,Plant Response Index (D),[7]; [17],2 (50-74% inhibition)
same,Plant Response Index (D),[7]; [18],1 (25-49% inhibition)
same,Plant Response Index (D),[7]; [19],2 (50-74% inhibition)
same,Plant Response Index (F),[8]; [16],1 (25-49% inhibition)
same,Plant Response Index (F),[8]; [17],2 (50-74% inhibition)
same,Plant Response Index (F),[8]; [18],0 (0-24% inhibition)
same,Plant Response Index (F),[8]; [19],2 (50-74% inhibition)
same,Plant Response Index (H),[9]; [16],0 (0-24% inhibition)
same,Plant Response Index (H),[9]; [17],1 (25-49% inhibition)
same,Plant Response Index (H),[9]; [18],0 (0-24% inhibition)
same,Plant Response Index (H),[9]; [19],2 (50-74% inhibition)
same,Plant Response Index (C),[10]; [16],0 (0-24% inhibition)
same,Plant Response Index (C),[10]; [17],1 (25-49% inhibition)
same,Plant Response Index (C),[10]; [18],0 (0-24% inhibition)
same,Plant Response Index (C),[10]; [19],1 (25-49% inhibition)
same,Plant Response Index (G),[11]; [16],0 (0-24% inhibition)
same,Plant Response Index (G),[11]; [17],0 (0-24% inhibition)
same,Plant Response Index (G),[11]; [18],1 (25-49% inhibition)
same,Plant Response Index (G),[11]; [19],2 (50-74% inhibition)
